The experiment concerns the target FAS (Homo sapiens, UniProt P49327). Nature of the experiment: FAS Assay (Assay #1 residual NADPH detection or Assay #2 CoA detection with CPM dye). It is filed as biochemical. The following applies: FAS inhibition, measured through Assay #1 or Assay #2; one experiment or average of multiple experiments. On the procedure: FAS activity was measured through one of the two following assays.
Inhibition of FAS activity can be measured based on the detection of residual NADPH substrate after the FAS assay is quenched. This assay is run as a 10 μL endpoint assay in 384-well format, where the reaction contains 20 μM malonyl-CoA, 2 μM acetyl-CoA, 30 μM NADPH and 40 nM FAS in 50 mM sodium phosphate, pH 7.0. The assay is run by sequentially dispensing 5 μl of a malonyl-CoA solution, then enzyme solution (containing the acetyl-CoA, and NADPH) into a black, low volume assay plate (Greiner 784076) pre-dispensed with 100 nL compound solutions in DMSO. The reaction is incubated at ambient temperature for 60 minutes, then quenched with 5 μL of a developing solution composed of 90 μM resazurin, 0.3 IU/ml diaphorase in 50 mM sodium phosphate, pH 7.0. The developed reaction is read on a Molecular Devices Analyst or Acquest (or equivalent) plate reader using a 530 nm excitation wavelength filter, a 580 nm emission filter, and 561 nm dichroic filter. The test compounds are prepared in neat DMSO at a concentration of 10 mM. For inhibition curves, compounds are diluted using a three fold serial dilution and tested at 11 concentrations (e.g. 25 μM-0.42 nM). Curves are analysed using ActivityBase and XLfit, and results are expressed as pIC50 values.
Inhibition of FAS can also be quantified based on the detection of the CoA products with a thio-reactive coumarin dye. This assay is run as a 10 μL endpoint assay in 384-well format, where the reaction contains 20 μM malonyl-CoA, 20 μM acetyl-CoA, 40 μM NADPH and 2 nM FAS in 50 mM sodium phosphate, pH 7.0, and 0.04% Tween-20. The assay is run by adding 5 μL enzyme solution to a black, low volume assay plate (Greiner 784076) pre-dispensed with 100 nl compound solutions in DMSO. After 30 minutes, 5 μL substrate is added, and the reaction incubated at ambient temperature for an additional 60 minutes. The reaction is then quenched with 10 μL of 6M guanidine-HCl containing 50 μM CPM (7-diethylamino-3-(4′-maleimidylphenyl)-4-methylcoumarin (CPM; thio-reactive dye), and incubated for 30 minutes. The plate is read on an Envision (PerkinElmer) or equivalent plate reader using a 380 nm excitation wavelength filter, and a 486 nm emission filter. Data fitting and compound preparations are done as described above.
FAS, sequence (P49327 whole entry): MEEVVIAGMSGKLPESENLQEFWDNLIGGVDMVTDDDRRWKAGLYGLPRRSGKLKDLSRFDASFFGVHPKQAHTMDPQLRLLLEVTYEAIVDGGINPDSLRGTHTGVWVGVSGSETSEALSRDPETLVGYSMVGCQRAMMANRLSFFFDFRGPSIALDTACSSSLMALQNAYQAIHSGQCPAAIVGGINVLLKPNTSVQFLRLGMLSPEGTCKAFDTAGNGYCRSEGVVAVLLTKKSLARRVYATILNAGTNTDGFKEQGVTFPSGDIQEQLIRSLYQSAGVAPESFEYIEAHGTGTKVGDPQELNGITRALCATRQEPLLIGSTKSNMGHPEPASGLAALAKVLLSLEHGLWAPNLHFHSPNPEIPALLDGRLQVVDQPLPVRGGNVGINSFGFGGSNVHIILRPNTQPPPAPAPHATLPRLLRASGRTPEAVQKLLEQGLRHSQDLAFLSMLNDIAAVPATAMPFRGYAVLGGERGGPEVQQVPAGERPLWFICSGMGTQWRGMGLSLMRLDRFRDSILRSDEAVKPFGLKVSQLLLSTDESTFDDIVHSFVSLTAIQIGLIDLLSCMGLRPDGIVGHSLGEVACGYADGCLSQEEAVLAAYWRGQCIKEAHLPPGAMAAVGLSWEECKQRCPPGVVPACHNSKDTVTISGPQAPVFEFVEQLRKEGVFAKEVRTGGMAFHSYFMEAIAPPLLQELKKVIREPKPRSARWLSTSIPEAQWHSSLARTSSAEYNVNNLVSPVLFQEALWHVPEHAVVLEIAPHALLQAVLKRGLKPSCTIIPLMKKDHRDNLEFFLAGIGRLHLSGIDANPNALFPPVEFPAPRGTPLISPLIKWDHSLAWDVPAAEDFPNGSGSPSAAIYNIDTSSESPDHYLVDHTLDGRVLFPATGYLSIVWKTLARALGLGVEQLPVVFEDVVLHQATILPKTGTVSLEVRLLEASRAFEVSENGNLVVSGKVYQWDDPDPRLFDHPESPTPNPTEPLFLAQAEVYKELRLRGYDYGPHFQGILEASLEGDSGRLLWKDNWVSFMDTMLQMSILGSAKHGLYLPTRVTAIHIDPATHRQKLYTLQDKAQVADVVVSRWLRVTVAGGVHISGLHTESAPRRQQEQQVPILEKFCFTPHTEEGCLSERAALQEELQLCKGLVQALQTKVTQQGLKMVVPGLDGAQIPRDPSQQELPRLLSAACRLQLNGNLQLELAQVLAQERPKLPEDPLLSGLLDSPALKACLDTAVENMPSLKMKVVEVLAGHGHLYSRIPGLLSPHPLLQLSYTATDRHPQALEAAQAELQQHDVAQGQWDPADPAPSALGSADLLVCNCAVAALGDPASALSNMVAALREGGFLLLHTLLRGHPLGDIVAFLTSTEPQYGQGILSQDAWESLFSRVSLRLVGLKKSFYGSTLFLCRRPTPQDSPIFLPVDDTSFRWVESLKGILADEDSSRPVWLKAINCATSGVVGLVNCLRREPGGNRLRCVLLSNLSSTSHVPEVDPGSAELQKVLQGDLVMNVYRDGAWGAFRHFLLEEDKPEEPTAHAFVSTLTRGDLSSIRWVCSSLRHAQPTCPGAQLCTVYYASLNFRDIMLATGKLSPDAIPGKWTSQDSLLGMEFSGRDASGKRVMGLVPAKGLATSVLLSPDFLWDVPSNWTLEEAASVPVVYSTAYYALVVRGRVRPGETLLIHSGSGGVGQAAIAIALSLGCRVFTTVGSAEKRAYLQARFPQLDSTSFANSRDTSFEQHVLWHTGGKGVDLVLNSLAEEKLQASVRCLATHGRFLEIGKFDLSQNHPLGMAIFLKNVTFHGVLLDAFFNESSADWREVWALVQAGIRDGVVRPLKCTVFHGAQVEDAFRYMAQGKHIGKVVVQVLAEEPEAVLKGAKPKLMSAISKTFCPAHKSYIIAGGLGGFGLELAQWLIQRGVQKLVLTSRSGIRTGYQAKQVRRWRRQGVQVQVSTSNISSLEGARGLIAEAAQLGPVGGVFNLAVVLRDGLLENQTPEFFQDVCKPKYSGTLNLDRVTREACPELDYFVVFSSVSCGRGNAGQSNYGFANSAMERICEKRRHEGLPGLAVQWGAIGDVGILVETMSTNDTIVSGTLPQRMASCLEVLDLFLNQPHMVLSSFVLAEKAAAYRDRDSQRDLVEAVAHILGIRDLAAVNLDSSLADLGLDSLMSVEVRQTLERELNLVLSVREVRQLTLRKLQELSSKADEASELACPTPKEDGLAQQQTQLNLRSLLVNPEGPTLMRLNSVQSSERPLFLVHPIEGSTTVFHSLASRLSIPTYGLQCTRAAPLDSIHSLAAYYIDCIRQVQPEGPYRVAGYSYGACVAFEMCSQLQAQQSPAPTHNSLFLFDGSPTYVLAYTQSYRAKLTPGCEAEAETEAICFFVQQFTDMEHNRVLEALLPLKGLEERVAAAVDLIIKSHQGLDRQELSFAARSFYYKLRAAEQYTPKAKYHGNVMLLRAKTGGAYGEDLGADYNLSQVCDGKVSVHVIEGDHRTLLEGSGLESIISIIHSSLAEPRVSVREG
`COc1ccc(-c2ccc(-c3nnnn3C[C@@H]3CCN(C(=O)C4CC4)C3)cc2)c(Cl)c1` [Example 5, 5-[2′-chloro-4′-(methyloxy)-4-biphenylyl]-1-{[(3R)-1-(cyclopropylcarbonyl)-3-pyrrolidinyl]methyl}-1H-tetrazole]: the concentration for half-maximal inhibition (IC50) (as a rule, the concentration that gives 50% inhibition) was found to be 752 nM.

Compound `O=C(C1CC1)N1CC[C@@H](Cn2nncc2-c2ccc(-c3ccc4[nH]ncc4c3)cc2)C1` [Example 11, 5-[4-(1-{[(3R)-1-(cyclopropylcarbonyl)-3-pyrrolidinyl]methyl}-1H-1,2,3-triazol-5-yl)phenyl]-1H-indazole] registered an IC50 of 40 nM.

The compound `Cc1nnc(-c2ccc(-c3ccc(Cl)cc3Cl)cc2)n1C[C@@H]1CCN(C(=O)C2CC2)C1` [Example 15, 4-{[(3S)-1-(cyclopropylcarbonyl)-3-pyrrolidinyl]methyl}-3-(2′,4′-dichloro-4-biphenylyl)-5-methyl-4H-1,2,4-triazole] registered an IC50 of 596 nM.

In the case of `O=C(C1CC1)N1CC[C@@H](Cn2ccnc2-c2ccc(-c3ccccc3)cc2)C1` [Example 26, 2-(4-biphenylyl)-1-{[(3S)-1-(cyclopropylcarbonyl)-3-pyrrolidinyl]methyl}-1H-imidazole], the 50% inhibitory concentration (IC50) was found to be 190 nM.

Compound `O=C(C1CC1)N1CC[C@@H](Cn2ccnc2-c2ccc(-c3ccc4occc4c3)cc2)C1` [Example 34, 2-[4-(1-benzofuran-5-yl)phenyl]-1-{[(3S)-1-(cyclopropylcarbonyl)-3-pyrrolidinyl]methyl}-1H-imidazole] had an IC50 of 23 nM.

`Cc1nc(-c2ccc(-c3ccc(F)cc3)cc2)n(CC2CCN(C(=O)C3CC3)C2)c1C` (stereo not drawn) [Example 41, 1-{[1-(cyclopropylcarbonyl)-3-pyrrolidinyl]methyl}-2-(4′-fluoro-4-biphenylyl)-4,5-dimethyl-1H-imidazole] showed an IC50 of 1520 nM.

In the case of `Cc1cnc(-c2ccc(-c3ccc(Cl)cc3Cl)cc2)n1CC1CCN(C(=O)C2CC2)C1` (stereo not drawn) [Example 54, 1-{[1-(cyclopropylcarbonyl)-3-pyrrolidinyl]methyl}-2-(2′,4′-dichloro-4-biphenylyl)-5-methyl-1H-imidazole], inhibition was half-maximal at 602 nM (IC50).

As to `O=C(C1CC1)N1CC[C@@H](Cn2cnnc2-c2ccc(-c3cccc4[nH]ncc34)cc2)C1` [Example 67, 4-[4-(4-{[(3S)-1-(cyclopropylcarbonyl)-3-pyrrolidinyl]methyl}-4H-1,2,4-triazol-3-yl)phenyl]-1H-indazole], the midpoint of inhibition, the IC50, lay at 13 nM.

`Cn1ccc2cc(-c3ccc(-c4nncn4C[C@@H]4CCN(C(=O)C5CC5)C4)cc3)cnc21` [Example 73, 5-[4-(4-{[(3S)-1-(cyclopropylcarbonyl)-3-pyrrolidinyl]methyl}-4H-1,2,4-triazol-3-yl)phenyl]-1-methyl-1H-pyrrolo[2,3-b]pyridine] registered an IC50 of 251 nM.

The compound `O=C(C1CC1)N1CC[C@@H](Cn2cnnc2-c2ccc(-c3cccc(-c4cc[nH]n4)c3)cc2F)C1` [Example 87, 4-{[(3S)-1-(cyclopropylcarbonyl)-3-pyrrolidinyl]methyl}-3-[3-fluoro-3′-(1H-pyrazol-5-yl)-4-biphenylyl]-4H-1,2,4-triazole] returned a 50% inhibitory concentration (IC50) of 63 nM.

`O=C(C1CC1)N1CC(Cn2cnnc2-c2ccc(-c3ccc4ncccc4c3)cc2F)C1` [Example 96, 6-[4-(4-{[1-(cyclopropylcarbonyl)-3-azetidinyl]methyl}-4H-1,2,4-triazol-3-yl)-3-fluorophenyl]quinoline] came in with an IC50 of 631 nM.

For `COc1cc(-c2ccc(-c3nncn3C[C@@H]3CCN(C(=O)C4CC4)C3)c(F)c2)ccc1C` [Example 98, 4-{[(3S)-1-(cyclopropylcarbonyl)-3-pyrrolidinyl]methyl}-3-[3-fluoro-4′-methyl-3′-(methyloxy)-4-biphenylyl]-4H-1,2,4-triazole], the IC50 stood at 200 nM.

(Values after patent US20130196971A1, “FATTY ACID SYNTHASE INHIBITORS” (priority 2010, published 2013).)
